# In ChEMBL document CHEMBL3885881, “DrugMatrix”:
# Species on record: Rattus norvegicus
# Test: DrugMatrix - Regimen: Daily Repeat
# Assay type: toxicity, organism-based, Sprague-Dawley
# Set-up: regimen Daily Repeat, gender Male, age 6-8 weeks
# Conditions: in vivo, po, route oral GAVAGE, […]; for ABSOLUTE BASOPHIL / ABSOLUTE EOSINOPHIL / ABSOLUTE LYMPHOCYTE / ABSOLUTE MONOCYTE / ABSOLUTE SEGMENTED NEUTROPHIL / BASOPHIL / EOSINOPHIL / ERYTHROCYTE COUNT / HEMATOCRIT / HEMOGLOBIN / LEUKOCYTE COUNT / LYMPHOCYTE / MEAN CORPUSCULAR HEMOGLOBIN / MEAN CORPUSCULAR HEMOGLOBIN CONCENTRATION / MEAN CORPUSCULAR VOLUME / MONOCYTE / NEUTROPHIL / NUCLEATED RED BLOOD CELLS / PLATELET COUNT: tissue Blood; for ALANINE AMINOTRANSFERASE / ALBUMIN / ALKALINE PHOSPHATASE / ASPARTATE AMINOTRANSFERASE / BLOOD UREA NITROGEN / CARBON DIOXIDE / CHLORIDE / CHOLESTEROL / CREATINE PHOSPHOKINASE / CREATININE / GLUCOSE / LACTATE DEHYDROGENASE / LIPASE / PHOSPHORUS / POTASSIUM / SODIUM / TOTAL BILIRUBIN / TOTAL PROTEIN / URIC ACID: tissue Plasma
# [1] = 48.8 mg/kg, 72 h, dose level Low, time 3 day
# [2] = 48.8 mg/kg, 120 h, dose level Low, time 5 day
# [3] = 488 mg/kg, 72 h, dose level High, time 3 day
# [4] = 488 mg/kg, 120 h, dose level High, time 5 day
compound,measurement,setting,value
C=CCc1ccc2c(c1)OCO2 [SAFROLE],ABSOLUTE BASOPHIL,[1],0 CELLS/uL
same,ABSOLUTE EOSINOPHIL,[1],0 CELLS/uL
same,ABSOLUTE LYMPHOCYTE,[1],11419.67 CELLS/uL
same,ABSOLUTE MONOCYTE,[1],222 CELLS/uL
same,ABSOLUTE SEGMENTED NEUTROPHIL,[1],1191.67 CELLS/uL
same,BASOPHIL,[1],0%
same,EOSINOPHIL,[1],0%
same,ERYTHROCYTE COUNT,[1],5.33 x10E6/uL
same,HEMATOCRIT,[1],33.63%
same,HEMOGLOBIN,[1],13.47 G/DL
same,LEUKOCYTE COUNT,[1],12.83 x10E3/uL
same,LYMPHOCYTE,[1],89%
same,MEAN CORPUSCULAR HEMOGLOBIN,[1],25.3 pg
same,MEAN CORPUSCULAR HEMOGLOBIN CONCENTRATION,[1],40.03 G/DL
same,MEAN CORPUSCULAR VOLUME,[1],63.03 fL
same,MONOCYTE,[1],1.67%
same,NEUTROPHIL,[1],9.33%
same,NUCLEATED RED BLOOD CELLS,[1],0 /100WBC
same,PLATELET COUNT,[1],1123 x10E3/uL
same,ALANINE AMINOTRANSFERASE,[1],71.67 u/L
same,ALBUMIN,[1],4 G/DL
same,ALKALINE PHOSPHATASE,[1],447.67 u/L
same,ASPARTATE AMINOTRANSFERASE,[1],90.67 u/L
same,BLOOD UREA NITROGEN,[1],13.33 mg/dL
same,CARBON DIOXIDE,[1],26 mmol/L
same,CHLORIDE,[1],101.67 MEQ/L
same,CHOLESTEROL,[1],78.67 mg/dL
same,CREATINE PHOSPHOKINASE,[1],266.33 u/L
same,CREATININE,[1],0.21 mg/dL
same,GLUCOSE,[1],149.33 mg/dL
same,LACTATE DEHYDROGENASE,[1],158.33 u/L
same,LIPASE,[1],11.67 u/L
same,PHOSPHORUS,[1],11.73 mg/dL
same,POTASSIUM,[1],6.6 MEQ/L
same,SODIUM,[1],143.53 MEQ/L
same,TOTAL BILIRUBIN,[1],0.23 mg/dL
same,TOTAL PROTEIN,[1],5.57 G/DL
same,URIC ACID,[1],1.4 mg/dL
same,ABSOLUTE BASOPHIL,[2],0 CELLS/uL
same,ABSOLUTE EOSINOPHIL,[2],30.67 CELLS/uL
same,ABSOLUTE LYMPHOCYTE,[2],9371 CELLS/uL
same,ABSOLUTE MONOCYTE,[2],61.33 CELLS/uL
same,ABSOLUTE SEGMENTED NEUTROPHIL,[2],1037 CELLS/uL
same,BASOPHIL,[2],0%
same,EOSINOPHIL,[2],0.33%
same,ERYTHROCYTE COUNT,[2],5.63 x10E6/uL
same,HEMATOCRIT,[2],35.6%
same,HEMOGLOBIN,[2],14.13 G/DL
same,LEUKOCYTE COUNT,[2],10.5 x10E3/uL
same,LYMPHOCYTE,[2],89%
same,MEAN CORPUSCULAR HEMOGLOBIN,[2],25.07 pg
same,MEAN CORPUSCULAR HEMOGLOBIN CONCENTRATION,[2],39.67 G/DL
same,MEAN CORPUSCULAR VOLUME,[2],63.27 fL
same,MONOCYTE,[2],0.67%
same,NEUTROPHIL,[2],10%
same,NUCLEATED RED BLOOD CELLS,[2],1 /100WBC
same,PLATELET COUNT,[2],1163.33 x10E3/uL
same,ALANINE AMINOTRANSFERASE,[2],65 u/L
same,ALBUMIN,[2],4.07 G/DL
same,ALKALINE PHOSPHATASE,[2],334.67 u/L
same,ASPARTATE AMINOTRANSFERASE,[2],88.67 u/L
same,BLOOD UREA NITROGEN,[2],12 mg/dL
same,CARBON DIOXIDE,[2],31.33 mmol/L
same,CHLORIDE,[2],102 MEQ/L
same,CHOLESTEROL,[2],59.67 mg/dL
same,CREATINE PHOSPHOKINASE,[2],260.67 u/L
same,CREATININE,[2],0.22 mg/dL
same,GLUCOSE,[2],164.33 mg/dL
same,LACTATE DEHYDROGENASE,[2],263.33 u/L
same,LIPASE,[2],11.67 u/L
same,PHOSPHORUS,[2],10.97 mg/dL
same,POTASSIUM,[2],6.08 MEQ/L
same,SODIUM,[2],144.37 MEQ/L
same,TOTAL BILIRUBIN,[2],0.17 mg/dL
same,TOTAL PROTEIN,[2],5.7 G/DL
same,URIC ACID,[2],1.8 mg/dL
same,ABSOLUTE BASOPHIL,[3],0 CELLS/uL
same,ABSOLUTE EOSINOPHIL,[3],78 CELLS/uL
same,ABSOLUTE LYMPHOCYTE,[3],16011.33 CELLS/uL
same,ABSOLUTE MONOCYTE,[3],75.33 CELLS/uL
same,ABSOLUTE SEGMENTED NEUTROPHIL,[3],1335.33 CELLS/uL
same,BASOPHIL,[3],0%
same,EOSINOPHIL,[3],0.33%
same,ERYTHROCYTE COUNT,[3],6.08 x10E6/uL
same,HEMATOCRIT,[3],37.6%
same,HEMOGLOBIN,[3],15.17 G/DL
same,LEUKOCYTE COUNT,[3],17.5 x10E3/uL
same,LYMPHOCYTE,[3],90.67%
same,MEAN CORPUSCULAR HEMOGLOBIN,[3],24.93 pg
same,MEAN CORPUSCULAR HEMOGLOBIN CONCENTRATION,[3],40.33 G/DL
same,MEAN CORPUSCULAR VOLUME,[3],61.83 fL
same,MONOCYTE,[3],0.67%
same,NEUTROPHIL,[3],8.33%
same,NUCLEATED RED BLOOD CELLS,[3],0 /100WBC
same,PLATELET COUNT,[3],1291.67 x10E3/uL
same,ALANINE AMINOTRANSFERASE,[3],88.33 u/L
same,ALBUMIN,[3],3.93 G/DL
same,ALKALINE PHOSPHATASE,[3],421 u/L
same,ASPARTATE AMINOTRANSFERASE,[3],112.67 u/L
same,BLOOD UREA NITROGEN,[3],8.33 mg/dL
same,CARBON DIOXIDE,[3],23.33 mmol/L
same,CHLORIDE,[3],105.67 MEQ/L
same,CHOLESTEROL,[3],87.33 mg/dL
same,CREATINE PHOSPHOKINASE,[3],340.33 u/L
same,CREATININE,[3],0.13 mg/dL
same,GLUCOSE,[3],142 mg/dL
same,LACTATE DEHYDROGENASE,[3],539.33 u/L
same,LIPASE,[3],12 u/L
same,PHOSPHORUS,[3],13.57 mg/dL
same,POTASSIUM,[3],6.52 MEQ/L
same,SODIUM,[3],146.57 MEQ/L
same,TOTAL BILIRUBIN,[3],0.2 mg/dL
same,TOTAL PROTEIN,[3],5.33 G/DL
same,URIC ACID,[3],2.37 mg/dL
same,ABSOLUTE BASOPHIL,[4],0 CELLS/uL
same,ABSOLUTE EOSINOPHIL,[4],0 CELLS/uL
same,ABSOLUTE LYMPHOCYTE,[4],12133.67 CELLS/uL
same,ABSOLUTE MONOCYTE,[4],150 CELLS/uL
same,ABSOLUTE SEGMENTED NEUTROPHIL,[4],1216.33 CELLS/uL
same,BASOPHIL,[4],0%
same,EOSINOPHIL,[4],0%
same,ERYTHROCYTE COUNT,[4],6.25 x10E6/uL
same,HEMATOCRIT,[4],37.83%
same,HEMOGLOBIN,[4],14.97 G/DL
same,LEUKOCYTE COUNT,[4],13.5 x10E3/uL
same,LYMPHOCYTE,[4],89.33%
same,MEAN CORPUSCULAR HEMOGLOBIN,[4],23.97 pg
same,MEAN CORPUSCULAR HEMOGLOBIN CONCENTRATION,[4],39.53 G/DL
same,MEAN CORPUSCULAR VOLUME,[4],60.6 fL
same,MONOCYTE,[4],1%
same,NEUTROPHIL,[4],9.67%
same,NUCLEATED RED BLOOD CELLS,[4],0 /100WBC
same,PLATELET COUNT,[4],1251.67 x10E3/uL
same,ALANINE AMINOTRANSFERASE,[4],106.33 u/L
same,ALBUMIN,[4],3.87 G/DL
same,ALKALINE PHOSPHATASE,[4],337.67 u/L
same,ASPARTATE AMINOTRANSFERASE,[4],130.67 u/L
same,BLOOD UREA NITROGEN,[4],10.33 mg/dL
same,CARBON DIOXIDE,[4],24 mmol/L
same,CHLORIDE,[4],102.33 MEQ/L
same,CHOLESTEROL,[4],116.33 mg/dL
same,CREATINE PHOSPHOKINASE,[4],612.33 u/L
same,CREATININE,[4],0.19 mg/dL
same,GLUCOSE,[4],123.33 mg/dL
same,LACTATE DEHYDROGENASE,[4],662.67 u/L
same,LIPASE,[4],12.67 u/L
same,PHOSPHORUS,[4],11.8 mg/dL
same,POTASSIUM,[4],5.41 MEQ/L
same,SODIUM,[4],142.07 MEQ/L
same,TOTAL BILIRUBIN,[4],0.17 mg/dL
same,TOTAL PROTEIN,[4],5.6 G/DL
same,URIC ACID,[4],1.37 mg/dL
